The subject of one series is cell-free 5 lipoxygenase. Nature of the series: 5 lipoxygenase activity polarographically measured in 10,000×g supernatant of homogenized rat basophilic leukemia cells; release from complex. It counts as biochemical. Conditions: RBL 10,000×g supernatant, arachidonic acid 75 μM, 5 minutes at 35° C.; complex of Example 3 versus free compound. Here is the method: To determine the rate and the extent of the release of N hydroxy-[…])methyl-acetamide from the complex prepared according to Example 3, the 5 lipoxygenase activity of cell-free 5 lipoxygenase was polarographically measured with oxygen electrodes in 10,000×g supernatant from homogenized rat basophilic leukemia cells (RBL i cells). After incubation of the 10,000×g supernatant with arachidonic acid (75 μM), adenosine triphosphate (4 mM), glutathione (4 mM), and either N hydroxy-[…])methyl-acetamide or a solvent for 5 minutes at 35° C., the lipoxygenase reaction was initiated by addition of calcium chloride and plotted simultaneously. The evaluation included the duration of the lag-phase as well as the initial rate of the reaction after the lag-phase. […] A significant amount of the acetohydroxamic acid compound is fully available in the biological test system even when the compound is originally administered in the form of a complex.

Another series addresses T1, cyclooxygenase (Ovis aries, UniProt P05979).
T1 sequence (P05979 25-600): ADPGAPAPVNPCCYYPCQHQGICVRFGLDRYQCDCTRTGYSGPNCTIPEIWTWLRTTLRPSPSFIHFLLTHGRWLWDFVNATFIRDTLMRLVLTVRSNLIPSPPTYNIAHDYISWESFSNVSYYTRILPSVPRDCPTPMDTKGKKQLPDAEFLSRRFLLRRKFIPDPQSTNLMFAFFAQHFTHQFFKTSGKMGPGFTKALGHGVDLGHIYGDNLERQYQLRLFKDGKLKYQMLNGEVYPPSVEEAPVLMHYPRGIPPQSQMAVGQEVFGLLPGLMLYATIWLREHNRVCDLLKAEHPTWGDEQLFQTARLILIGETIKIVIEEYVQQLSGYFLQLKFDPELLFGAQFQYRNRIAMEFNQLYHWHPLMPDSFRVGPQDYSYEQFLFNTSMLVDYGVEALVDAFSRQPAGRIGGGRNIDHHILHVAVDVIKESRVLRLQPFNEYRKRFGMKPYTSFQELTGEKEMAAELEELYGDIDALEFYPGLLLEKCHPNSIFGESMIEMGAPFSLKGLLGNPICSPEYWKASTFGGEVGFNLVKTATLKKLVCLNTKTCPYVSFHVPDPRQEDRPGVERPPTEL
Description: activity of cyclooxygenase in sheep seminal vesicle microsomes ([14C]-arachidonic acid, TLC). The class given is biochemical. Conditions: potassium phosphate buffer pH 7.0. Here is the method:
The effect of the acetohydroxamic acid compound of formula I on the activity of cyclooxygenase was tested using a suspension of sheep seminal vesicle microsomes in […] of potassium phosphate buffer of pH 7.0 which was incubated either with N-hydroxy-N-(thien-3-yl)methyl-acetamide or with a solvent only and [^14 C]-arachidonic acid. The IC50 values, i.e. the concentrations causing an inhibition of 50% of cyclooxygenase were determined by thin layer chromatography using a TLC-linear-analyzer.

The nature of the next series: toxicity. Conditions: observed only at far higher doses than therapeutic or prophylactic doses.
The nature of a further series: solubility. The class given is physicochemical.
The next series deals with guinea pigs. Description: antiasthmatic effect: ovalbumin-induced bronchoconstriction in anesthetized, ventilated, passively sensitized guinea pigs (Konzett-Roessler). It counts as in vivo, guinea pig. On the procedure: The antiasthmatic effect of the compound according to the invention was tested in anesthetized and ventilated guinea pigs. In order to induce an asthmatic reaction, the animals were passively sensitized with a single intraperitoneal injection of antiovalbumin serum. After 48 hours the asthmatic reaction was elicited by intravenous challenge with 0.2 mg/kg of ovalbumin. The immediately resulting bronchoconstriction was measured as an increase in overflow according to the Konzett-Roessler method for a period of 10 minutes (Naunyn Schiedeberg's Arch. Exp. Path. Pharma. Vol. 195, 71-74 (1940)). Effects caused by histamine, serotonin and sympathic counterreaction were eliminated by intravenous pretreatment with 2.15 mg/kg of mepyramine, […] of propranolol, 4.64 mg/kg of atropine and 1 mg/kg of methysergide, all given 5 minutes before challenge. N-Hydroxy-N-(thien-3-yl)methyl-acetamide was orally administered 60 minutes before, intravenously administered 30 minutes before, and locally administered 2 minutes before the administration of ovalbumin.

Another series has as its system 5-lipoxygenase. Description: ex vivo iLTB4-formation in whole blood of rats after oral administration (bioavailability). The arrangement: species or system rat (Wistar strain, male). Here is the method:
The bioavailability of the compound of formula I was characterized by means of an ex vivo biochemical assessment method described by Tateson et al. in Brit. J. Pharmacol. 528 (1988): N-Hydroxy-N-(thien-3-yl)methyl-acetamide was orally administered in a dose of 21.5 mg/kg to male rats (Wistar strain). One hour later blood was taken from the rats in lethal CO2 -narcosis. Aliquots of the blood were incubated for 30 minutes at 37° C. in a water bath with addition of calcium ionophore A 23 187 to an end concentration of 15 μg/ml. At the end of the incubation the samples were centrifuged to collect the cell free plasma. The concentration of the immunoreactive LTB4 (iLTB4 ng/ml) in each plasma sample was determined by radioimmunoassay (^3 H-LTB4 -RIA, Amersham) by means of a LTB4 -standard curve in diluted rat plasma. To determine the percent inhibition of ex vivo iLTB4 -formation in whole blood of rats treated with the compound of formula I, rats orally treated with an appropriate vehicle solution were included in all experiments, aliquots of their blood were run in parallel and were processed in the same manner as described. The mean iLTB4 formation per ml plasma of these vehicle treated rats served as the 100% value of normal 5-lipoxygenase activity. The percent inhibition of the ex vivo iLTB4 -formation after oral administration of the compound of formula I was calculated according to the following formula: […]
where Q represents the mean iLTB4 content in ng […] per ml plasma of the rats treated with the compound of formula I and C represents the mean iLTB4 content in ng iLTB4 per ml plasma of rats treated only with the vehicle.

The test system of series [1] is isolated tracheal strips of guinea pigs. Nature of the series: anti-anaphylactic effect: ovalbumin-induced anaphylactic constrictions of isolated tracheal strips. The class given is cell-based, guinea pig. Conditions: Cavia porcellus; tracheal strips of actively sensitized guinea pigs, with mepyramine and indomethacin, 37° C.; Example 3 based on the complexed N-hydroxy-N-(thien-3-yl)methyl-acetamide content; read-out: IC50-value, inhibition of 50% of the anaphylactic constrictions. On the procedure: The anti-anaphylactic effect of N-hydroxy-[…])methyl-acetamide was tested using an in vitro model. […] The organs were connected to isometric force transducers. After incubation with mepyramine (elimination of histamine) and indomethacin (inhibition of cyclooxygenase resulting in an increase of the anaphylactic reaction) ovalbumin was added to the organ bath in cumulatively increasing concentrations. The resulting anaphylactic constrictions were inhibited by N-hydroxy-[…])methyl-acetamide which was added to the organ bath before the anaphylactic constrictions were elicited.

The target in another series is T2, 5 lipoxygenase (Homo sapiens, UniProt P09917).
T2 construct: endogenous in cells; host or cells: freshly drawn, heparinized human whole blood (blood leukocytes; the cell type is own knowledge)
T2 sequence (P09917 1-674): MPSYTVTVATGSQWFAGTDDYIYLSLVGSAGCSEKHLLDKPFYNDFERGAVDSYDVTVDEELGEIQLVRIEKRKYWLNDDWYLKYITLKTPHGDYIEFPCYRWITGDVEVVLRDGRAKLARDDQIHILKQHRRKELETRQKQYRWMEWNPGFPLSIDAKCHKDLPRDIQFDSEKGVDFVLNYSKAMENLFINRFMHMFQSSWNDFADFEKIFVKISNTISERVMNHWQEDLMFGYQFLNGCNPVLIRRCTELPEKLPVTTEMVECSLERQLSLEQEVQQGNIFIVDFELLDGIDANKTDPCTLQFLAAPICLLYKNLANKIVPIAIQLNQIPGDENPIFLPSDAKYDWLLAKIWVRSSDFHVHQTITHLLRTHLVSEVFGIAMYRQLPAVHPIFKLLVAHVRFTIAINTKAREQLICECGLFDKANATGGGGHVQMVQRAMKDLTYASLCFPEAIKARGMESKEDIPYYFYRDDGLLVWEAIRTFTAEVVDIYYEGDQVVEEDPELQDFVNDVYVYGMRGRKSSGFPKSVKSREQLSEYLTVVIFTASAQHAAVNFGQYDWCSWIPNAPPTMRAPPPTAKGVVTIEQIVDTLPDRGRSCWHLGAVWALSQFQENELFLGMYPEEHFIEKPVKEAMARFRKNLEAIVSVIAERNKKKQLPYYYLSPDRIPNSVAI
Nature of the series: inhibition of 5 lipoxygenase in human blood (A23187-induced iLTB4 formation, RIA). Conditions: heparinized human blood, A23187 15 μg/ml, 30 minutes at 37° C., iLTB4 by RIA; read-out: IC50-value, concentration causing an inhibition of 50% of 5 lipoxygenase. The class given is cell-based. Here is the method: To determine the inhibition of 5 lipoxygenase, aliquots of freshly drawn, heparinized human blood were incubated at 37° C. in a water bath with addition of either N Hydroxy-N-(thien-3-yl)methyl-acetamide in different concentrations or a solvent. After 5 minutes the calcium ionophore A23187 was added to an end concentration of 15 μg/ml blood, and the incubation was continued for 30 minutes at 37° C. Then the samples were centrifuged to collect the cell free plasma. The content of the immunoreactive leucotriene B4 (iLTB4), in each sample was determined by radioimmunoassay "RIA" (^3 H-LTB4 -RIA, Amersham) with reference to a LTB4 standard curve and was calculated as ng iLTB4 /ml plasma. The percentage inhibition caused by the acetohydroxamic acid compound of formula I at various concentrations was calculated in comparison to the aliquots incubated with solvent only. N-hydroxy-N-(thien-3-yl)methyl-acetamide has an IC50 -value, i.e. the concentration causing an inhibition of 50% of 5 lipoxygenase, of 0.3 μmolar.

≈ marks a conversion by molar mass, not a printed value.

On to `CC(=O)N(O)Cc1ccsc1` [Example 1, N-hydroxy-N-(thien-3-yl)methyl-acetamide], for which, in the series on cell-free 5 lipoxygenase, the “inhibition of the 5 lipoxygenase reaction” value was “comparable effects”. The “prolongation of the lag-phase of the 5 lipoxygenase reaction” value with cell-free 5 lipoxygenase was “comparable effects”. Besides, the “IC50-values for the inhibition of cyclooxygenase compared with IC50-values for 5-lipoxygenase” value on cyclooxygenase is listed as “significantly higher than the IC50 -values for the inhibition of 5-lipoxygenase”. For the same compound, in “toxicity”, the degree of toxicity entry is listed as “low degree of toxicity”. For the same compound, the solubility (usually how much of the substance goes into solution per volume) amounted to 3000 µg/mL (≈ 17.5 mM) in “solubility” (organic solvent or mixture, water/ethanol 4:1 mixture) and 3000 µg/mL (≈ 17.5 mM) in “solubility” (phosphate buffer/ethanol 4:1, organic solvent or mixture, phosphate buffer (pH 7.4)/ethanol, 4:1 mixture). The inhibition of bronchoconstriction in the series with guinea pigs (21.5 mg/kg oral, 60 minutes before ovalbumin) stood at 42%. In the series on guinea pigs (oral 21.5 mg/kg (free) versus intravenous 21.5 mg/kg (complex), guinea pigs), the “resorption of the acetohydroxamic acid compound” value was “high resorption”. In the series with 5-lipoxygenase (21.5 mg/kg oral, male Wistar rats, blood taken one hour later, A23187 15 μg/ml), the “percent inhibition of the ex vivo iLTB4-formation” value is 95%. The oral availability entry with 5-lipoxygenase (oral, 21.5 mg/kg, rats, concluded from ex vivo iLTB4 inhibition) was “excellent oral availability”. Besides, the “calculated dose with a semi-maximum inhibiting effect after oral administration” value with 5-lipoxygenase (oral, rats, ex vivo iLTB4-formation, 60 min) is listed as 5.6 mg/kg. For the same compound, the IC50 worked out at 10.2 µM in series [1] and 0.3 µM at 5 lipoxygenase.

Source of the values: US5252562A, “Acetohydroxamic compound and complexes pharmaceutical compositions containing them and processes of preparation and use” (Gruenenthal GmbH, priority 1991, dated 1993).
